ChEMBL document CHEMBL1201862, “PubChem BioAssay data set” (2004)
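96-well plates; 48 h exposure; 5 concentrations. Endpoints by linear interpolation between flanking doses. Not reached: highest tested concentration assigned. Abbreviation: GI50, concentration required for 50% inhibition of growth.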 The source made the active and inactive calls. Cut-off read from the data, not from the text of the source: active = GI50 up to about 1.1 µM and inactive = higher.

Columns and labels:
Assay in all cases: NCI anticancer screen, dose series, 48 h
786-0 = test system: 786-0
DU-145 = test system: DU-145
EKVX = test system: EKVX
HCT-15 = test system: HCT-15
HOP-92 = test system: HOP-92
M14 = test system: M14
MCF7 = test system: MCF7
MDA-MB-231 = test system: MDA-MB-231
MOLT-4 = test system: MOLT-4
NCI-H226 = test system: NCI-H226
NCI-H23 = test system: NCI-H23
NCI-H460 = test system: NCI-H460
OVCAR-3 = test system: OVCAR-3
RXF 393 = test system: RXF 393
SF-268 = test system: SF-268
SK-OV-3 = test system: SK-OV-3
SW-620 = test system: SW-620
UACC-257 = test system: UACC-257
HCC 2998 = test system: HCC 2998

SMILES | GI50 (786-0) | GI50 (DU-145) | GI50 (EKVX) | GI50 (HCT-15) | GI50 (HOP-92) | GI50 (M14) | GI50 (MCF7) | GI50 (MDA-MB-231) | GI50 (MOLT-4) | GI50 (NCI-H226) | GI50 (NCI-H23) | GI50 (NCI-H460) | GI50 (OVCAR-3) | GI50 (RXF 393) | GI50 (SF-268) | GI50 (SK-OV-3) | GI50 (SW-620) | GI50 (UACC-257) | GI50 (HCC 2998)
Cc1ccc(S(=O)(=O)NCCCCC(N)C(=O)O)cc1 (stereo unspecified) | > 100 µM (inactive) | > 100 µM (inactive) | > 100 µM (inactive) | > 100 µM | > 100 µM (inactive) | > 100 µM (inactive) | > 100 µM (inactive) | > 100 µM (inactive) | > 100 µM (inactive) | > 100 µM (inactive) | > 100 µM (inactive) | > 100 µM (inactive) | > 100 µM (inactive) | > 100 µM (inactive) | > 100 µM (inactive) | > 100 µM (inactive) | > 100 µM (inactive) | > 100 µM (inactive) | –
CC(=O)N1CCOC12N=NC(C)(C)O2 (stereo unspecified) | > 100 µM (inactive) | > 100 µM (inactive) | > 100 µM (inactive) | > 100 µM | > 100 µM (inactive) | > 100 µM (inactive) | > 100 µM (inactive) | > 100 µM (inactive) | > 100 µM (inactive) | – | > 100 µM (inactive) | > 100 µM (inactive) | > 100 µM (inactive) | – | > 100 µM (inactive) | > 100 µM (inactive) | > 100 µM (inactive) | > 100 µM (inactive) | > 100 µM (inactive)
COc1ccc(/C(=N/N=c2[nH]c3ccccc3[nH]2)C(=O)O)cc1 | > 100 µM (inactive) | > 100 µM (inactive) | > 100 µM (inactive) | > 100 µM | > 100 µM (inactive) | > 100 µM (inactive) | > 100 µM (inactive) | > 100 µM (inactive) | > 100 µM (inactive) | > 100 µM (inactive) | > 100 µM (inactive) | > 100 µM (inactive) | > 100 µM (inactive) | – | > 100 µM (inactive) | > 100 µM (inactive) | > 100 µM (inactive) | > 100 µM (inactive) | > 100 µM (inactive)
COC(=O)C1(C)C=CC(=O)C2(C)C1C(O)C1OC3CC(c4ccoc4)C(C)=C3C1(C)C2CC(=O)O (stereo unspecified) | > 100 µM (inactive) | > 100 µM (inactive) | > 100 µM (inactive) | > 100 µM | > 100 µM (inactive) | > 100 µM (inactive) | > 100 µM (inactive) | > 100 µM (inactive) | > 100 µM (inactive) | – | > 100 µM (inactive) | > 100 µM (inactive) | > 100 µM (inactive) | – | > 100 µM (inactive) | > 100 µM (inactive) | > 100 µM (inactive) | > 100 µM (inactive) | > 100 µM (inactive)
NS(=O)(=O)c1ccc(/N=N/c2cnc(O)c(O)c2)cc1 | > 100 µM (inactive) | 78.2 µM (inactive) | > 100 µM (inactive) | > 100 µM | 81.7 µM (inactive) | 81.3 µM (inactive) | 44.2 µM (inactive) | > 100 µM (inactive) | 54 µM (inactive) | > 100 µM (inactive) | 64 µM (inactive) | > 100 µM (inactive) | 28.8 µM (inactive) | 95.3 µM (inactive) | 43.2 µM (inactive) | > 100 µM (inactive) | > 100 µM (inactive) | 23 µM (inactive) | –
COc1cc2c(c(OC)c1OC)-c1ccc(=O)c(O)cc1[C@@H](NC(C)=O)CC2 [COLCHICEINE] | 23.3 µM (inactive) | 27.6 µM (inactive) | 19.7 µM (inactive) | 10.7 µM | 20.2 µM (inactive) | 24.7 µM (inactive) | 17 µM (inactive) | 15.4 µM (inactive) | 5.42 µM (inactive) | 19.7 µM (inactive) | 10.6 µM (inactive) | 12.3 µM (inactive) | 29.6 µM (inactive) | – | 25.7 µM (inactive) | 40.5 µM (inactive) | 26.5 µM (inactive) | 21.2 µM (inactive) | 15.3 µM (inactive)
